Measurements published in ChEMBL document CHEMBL4043190 (Bioorg Med Chem Lett, 2017).

Experiments:
[1] = biological target: T1, Cyclin-dependent kinase 9 (Homo sapiens, UniProt P50750); experiment: Inhibition of CDK9 (unknown origin)
[2] = biological target: T2, Non-receptor tyrosine-protein kinase TYK2 (Homo sapiens, UniProt P29597); experiment: Inhibition of TYK2 (unknown origin) assessed as reduction in IL-23 induced STAT3 phosphorylation by cell based ELISA
[3] = Permeability from apical side to basolateral side in MDCK cells; type: ADME, cell-based, Canis lupus familiaris; conditions: dog, read-out: permeability
Plasma [4] = experiment: Unbound drug concentration in IL-23/IL-1beta induced C57BL/6J mouse plasma at 70 mg/kg, po preincubated for 30 mins followed by cytokine addition measured after 3.5 hrs post dose; type: ADME, organism-based; conditions: in vivo
Mus musculus [5] = experiment: Antiinflammatory activity in IMQ-induced BALB/c mouse model assessed as reduction in serum IL-17F production at 100 mg/kg, po bid for 5 days; type: functional; design: scale not given: the % may be the effect or the level left
[6] = Efflux ratio of permeability from basolateral to apical over apical to basolateral side in MDCK cells; type: ADME, cell-based, Canis lupus familiaris; conditions: dog
Plasma [7] = experiment: Unbound drug concentration in IL-23/IL-1beta induced C57BL/6J mouse plasma at 30 mg/kg, po preincubated for 30 mins followed by cytokine addition measured after 3.5 hrs post dose; type: ADME, organism-based; conditions: in vivo
[8] = biological target: Tyrosine-protein kinase JAK2 (Homo sapiens, UniProt O60674); experiment: Inhibition of JAK2 (unknown origin) by biochemical assay
Mus musculus [9] = experiment: Anti-inflammatory activity in IL-23/IL-1beta induced C57BL/6J mouse assessed as inhibition of IL-17F level in serum at 70 mg/kg, po pretreated for 30 mins followed by cytokine addition measured after 3 hrs by ELISA relative to control; type: functional
Mus musculus [10] = experiment: Toxicity in IMQ-induced BALB/c mouse model assessed as reduction in platelet levels at 70 mg/kg, po bid for 5 days; type: organism-based; design: scale not given: the % may be the effect or the level left; conditions: in vivo, 120 h
[11] = Ratio of unbound drug concentration in IL-23/IL-1beta induced C57BL/6J mouse plasma at 100 mg/kg, po to EC50 for JAK2 (unknown origin) assessed as inhibition of EPO-mediated STAT5 phosphorylation; type: organism-based; conditions: in vivo
Mus musculus [12] = experiment: Anti-inflammatory activity in IL-23/IL-1beta induced C57BL/6J mouse assessed as inhibition of IL-17F level in serum at 100 mg/kg, po pretreated for 30 mins followed by cytokine addition measured after 3 hrs by ELISA relative to control; type: functional
[13] = Clearance in dog; type: ADME, Canis lupus familiaris; conditions: in vivo
[14] = biological target: T1, Cyclin-dependent kinase 9; conditions: 70 nM
[15] = Protein binding in mouse plasma; type: ADME, cell-free; conditions: read-out: PPB (converted)
Homo sapiens [16] = organism: Homo sapiens; experiment: Selectivity ratio of EC50 for JAK2 (unknown origin) assessed as EPO-induced STAT5 phosphorylation to EC50 for TYK2 (unknown origin) assessed as IL-23-induced STAT3 phosphorylation
[17] = biological target: Tyrosine-protein kinase JAK1 (Homo sapiens, UniProt P23458); experiment: Inhibition of JAK1 (unknown origin)
[18] = biological target: T2, Non-receptor tyrosine-protein kinase TYK2; experiment: Inhibition of TYK2 (unknown origin) by biochemical assay
Mus musculus [19] = experiment: Antiinflammatory activity in IMQ-induced BALB/c mouse psoriasis model assessed as reduction in ear thickness at 100 mg/kg, po bid for 5 days meausred on day 6; type: functional; design: scale not given: the % may be the effect or the level left
[20] = Ratio of unbound drug concentration in IL-23/IL-1beta induced C57BL/6J mouse plasma at 100 mg/kg, po to EC50 for TYK2 (unknown origin) assessed as inhibition of IL-23 induced STAT3 phosphorylation
[21] = Clearance in rat; type: ADME; conditions: in vivo
[22] = Ratio of unbound drug concentration in IL-23/IL-1beta induced C57BL/6J mouse plasma at 30 mg/kg, po to EC50 for JAK2 (unknown origin) assessed as inhibition of EPO-mediated STAT5 phosphorylation; type: organism-based; conditions: in vivo
Plasma [23] = experiment: Unbound drug concentration in IL-23/IL-1beta induced C57BL/6J mouse plasma at 100 mg/kg, po preincubated for 30 mins followed by cytokine addition measured after 3.5 hrs post dose; type: ADME, organism-based; conditions: in vivo
[24] = Protein binding in human plasma; type: ADME, cell-free; conditions: read-out: PPB (converted)
Mus musculus [25] = experiment: Toxicity in IMQ-induced BALB/c mouse model assessed as reduction in platelet levels at 30 mg/kg, po bid for 5 days; type: organism-based; design: scale not given: the % may be the effect or the level left; conditions: in vivo, 120 h
[26] = biological target: Substance-P receptor (Homo sapiens) (UniProt P25103); experiment: Inhibition of NK1 (unknown origin) at 10 uM relative to control
[27] = Protein binding in rat plasma; type: ADME, cell-free; conditions: read-out: PPB (converted)
[28] = Ratio of unbound drug concentration in IL-23/IL-1beta induced C57BL/6J mouse plasma at 30 mg/kg, po to EC50 for TYK2 (unknown origin) assessed as inhibition of IL-23 induced STAT3 phosphorylation
[29] = biological target: Cyclin-dependent kinase 2 (Homo sapiens, UniProt P24941); conditions: 70 nM
Mus musculus [30] = experiment: Antiinflammatory activity in IMQ-induced BALB/c mouse psoriasis model assessed as reduction in ear thickness at 30 mg/kg, po bid for 5 days meausred on day 6; type: functional; design: scale not given: the % may be the effect or the level left
Homo sapiens [31] = organism: Homo sapiens; experiment: Selectivity ratio of Ki for JAK2 (unknown origin) to Ki for TYK2 (unknown origin)

T1 sequence (P50750 whole entry): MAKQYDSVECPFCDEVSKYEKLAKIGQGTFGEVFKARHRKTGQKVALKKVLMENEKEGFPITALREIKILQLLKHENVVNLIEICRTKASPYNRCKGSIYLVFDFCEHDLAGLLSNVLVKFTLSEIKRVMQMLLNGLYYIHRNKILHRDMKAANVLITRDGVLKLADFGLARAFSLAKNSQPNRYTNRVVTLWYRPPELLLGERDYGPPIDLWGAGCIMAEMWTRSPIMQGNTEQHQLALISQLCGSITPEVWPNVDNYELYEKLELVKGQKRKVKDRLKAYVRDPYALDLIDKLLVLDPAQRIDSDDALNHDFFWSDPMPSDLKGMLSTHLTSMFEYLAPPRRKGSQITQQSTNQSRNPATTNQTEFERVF
T2 sequence (P29597 whole entry): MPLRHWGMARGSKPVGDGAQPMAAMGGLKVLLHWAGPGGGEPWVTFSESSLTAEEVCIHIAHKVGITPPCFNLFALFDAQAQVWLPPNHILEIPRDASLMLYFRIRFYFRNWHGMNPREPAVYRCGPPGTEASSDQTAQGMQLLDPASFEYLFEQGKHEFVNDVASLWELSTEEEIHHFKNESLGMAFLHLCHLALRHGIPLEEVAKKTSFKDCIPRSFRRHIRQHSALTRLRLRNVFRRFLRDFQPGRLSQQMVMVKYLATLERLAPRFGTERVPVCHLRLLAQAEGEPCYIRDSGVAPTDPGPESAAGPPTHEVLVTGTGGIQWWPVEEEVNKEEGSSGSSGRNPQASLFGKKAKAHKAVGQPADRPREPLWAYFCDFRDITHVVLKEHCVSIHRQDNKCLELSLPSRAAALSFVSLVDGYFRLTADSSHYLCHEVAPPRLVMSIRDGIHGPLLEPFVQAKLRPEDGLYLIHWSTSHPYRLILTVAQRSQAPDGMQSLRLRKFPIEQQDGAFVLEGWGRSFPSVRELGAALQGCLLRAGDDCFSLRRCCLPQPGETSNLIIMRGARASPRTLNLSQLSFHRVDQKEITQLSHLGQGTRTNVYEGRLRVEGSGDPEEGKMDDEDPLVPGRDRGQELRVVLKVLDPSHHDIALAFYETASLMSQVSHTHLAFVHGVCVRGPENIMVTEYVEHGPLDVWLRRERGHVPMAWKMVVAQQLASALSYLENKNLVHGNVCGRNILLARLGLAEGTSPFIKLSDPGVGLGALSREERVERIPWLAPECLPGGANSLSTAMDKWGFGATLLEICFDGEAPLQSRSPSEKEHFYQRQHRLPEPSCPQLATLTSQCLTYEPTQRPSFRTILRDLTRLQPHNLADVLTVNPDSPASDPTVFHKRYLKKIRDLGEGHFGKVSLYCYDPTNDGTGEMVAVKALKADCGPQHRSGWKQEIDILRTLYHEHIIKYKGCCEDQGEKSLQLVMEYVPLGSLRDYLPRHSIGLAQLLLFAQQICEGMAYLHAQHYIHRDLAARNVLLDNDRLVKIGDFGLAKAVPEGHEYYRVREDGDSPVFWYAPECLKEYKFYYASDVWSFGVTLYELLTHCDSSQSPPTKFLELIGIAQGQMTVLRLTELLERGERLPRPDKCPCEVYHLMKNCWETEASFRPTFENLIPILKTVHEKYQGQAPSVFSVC
Sequence of Tyrosine-protein kinase JAK2 (O60674 whole entry): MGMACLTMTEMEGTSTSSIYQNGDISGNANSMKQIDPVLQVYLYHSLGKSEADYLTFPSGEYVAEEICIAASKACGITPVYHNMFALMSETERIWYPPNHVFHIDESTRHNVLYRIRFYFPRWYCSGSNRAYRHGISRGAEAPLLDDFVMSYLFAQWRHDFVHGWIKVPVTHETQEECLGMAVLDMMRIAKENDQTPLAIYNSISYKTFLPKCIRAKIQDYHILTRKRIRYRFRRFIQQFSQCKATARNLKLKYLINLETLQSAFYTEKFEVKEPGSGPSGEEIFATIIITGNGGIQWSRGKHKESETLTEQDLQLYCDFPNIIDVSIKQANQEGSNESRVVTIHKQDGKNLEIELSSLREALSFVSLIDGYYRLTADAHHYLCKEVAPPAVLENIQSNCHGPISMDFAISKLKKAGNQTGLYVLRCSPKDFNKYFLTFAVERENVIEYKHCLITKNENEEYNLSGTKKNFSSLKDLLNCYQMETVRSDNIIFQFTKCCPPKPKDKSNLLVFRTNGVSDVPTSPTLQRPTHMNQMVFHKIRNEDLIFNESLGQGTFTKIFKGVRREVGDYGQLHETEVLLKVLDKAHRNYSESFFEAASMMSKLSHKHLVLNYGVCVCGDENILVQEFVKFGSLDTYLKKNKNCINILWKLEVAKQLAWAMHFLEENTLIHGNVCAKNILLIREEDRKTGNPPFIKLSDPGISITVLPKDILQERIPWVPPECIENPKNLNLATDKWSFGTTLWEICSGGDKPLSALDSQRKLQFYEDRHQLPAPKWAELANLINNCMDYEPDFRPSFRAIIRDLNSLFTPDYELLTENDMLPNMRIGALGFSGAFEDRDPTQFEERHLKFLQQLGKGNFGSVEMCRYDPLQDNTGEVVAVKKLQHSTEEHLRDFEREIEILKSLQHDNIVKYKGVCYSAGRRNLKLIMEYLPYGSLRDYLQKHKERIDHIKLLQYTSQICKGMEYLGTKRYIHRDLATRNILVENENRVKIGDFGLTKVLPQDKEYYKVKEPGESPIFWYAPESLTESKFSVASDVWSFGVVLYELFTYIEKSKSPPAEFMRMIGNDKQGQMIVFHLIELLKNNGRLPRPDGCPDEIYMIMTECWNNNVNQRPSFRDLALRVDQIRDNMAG
Sequence of Tyrosine-protein kinase JAK1 (P23458 whole entry): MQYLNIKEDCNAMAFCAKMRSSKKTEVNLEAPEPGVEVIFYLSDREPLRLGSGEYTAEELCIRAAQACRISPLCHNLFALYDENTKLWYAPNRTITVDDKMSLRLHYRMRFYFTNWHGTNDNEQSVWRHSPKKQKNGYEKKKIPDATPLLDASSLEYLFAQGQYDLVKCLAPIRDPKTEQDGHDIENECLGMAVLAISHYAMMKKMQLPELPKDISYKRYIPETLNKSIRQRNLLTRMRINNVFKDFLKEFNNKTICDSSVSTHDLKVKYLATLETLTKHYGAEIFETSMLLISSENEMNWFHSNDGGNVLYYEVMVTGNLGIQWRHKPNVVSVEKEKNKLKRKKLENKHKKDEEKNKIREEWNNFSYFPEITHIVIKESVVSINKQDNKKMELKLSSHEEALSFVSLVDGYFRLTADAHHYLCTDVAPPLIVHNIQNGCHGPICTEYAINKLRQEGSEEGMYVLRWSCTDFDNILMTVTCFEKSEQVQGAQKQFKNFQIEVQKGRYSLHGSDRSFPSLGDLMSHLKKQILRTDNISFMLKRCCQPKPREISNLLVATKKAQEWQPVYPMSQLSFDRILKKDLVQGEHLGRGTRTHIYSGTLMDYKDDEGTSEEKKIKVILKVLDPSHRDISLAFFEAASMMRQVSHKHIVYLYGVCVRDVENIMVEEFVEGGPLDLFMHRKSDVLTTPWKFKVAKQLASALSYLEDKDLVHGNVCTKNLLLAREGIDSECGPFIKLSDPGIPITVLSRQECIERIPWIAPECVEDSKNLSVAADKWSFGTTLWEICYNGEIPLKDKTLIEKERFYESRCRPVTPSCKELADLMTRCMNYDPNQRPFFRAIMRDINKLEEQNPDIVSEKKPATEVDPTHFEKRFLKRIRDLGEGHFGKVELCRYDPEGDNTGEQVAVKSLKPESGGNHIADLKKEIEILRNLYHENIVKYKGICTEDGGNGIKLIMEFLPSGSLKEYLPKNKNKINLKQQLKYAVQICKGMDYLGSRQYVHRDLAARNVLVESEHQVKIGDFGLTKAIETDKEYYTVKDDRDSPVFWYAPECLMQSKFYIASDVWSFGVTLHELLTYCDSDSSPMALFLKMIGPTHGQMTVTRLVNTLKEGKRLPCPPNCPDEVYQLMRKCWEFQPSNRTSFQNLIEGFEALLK
Sequence of Substance-P receptor (Homo sapiens) (P25103 whole entry): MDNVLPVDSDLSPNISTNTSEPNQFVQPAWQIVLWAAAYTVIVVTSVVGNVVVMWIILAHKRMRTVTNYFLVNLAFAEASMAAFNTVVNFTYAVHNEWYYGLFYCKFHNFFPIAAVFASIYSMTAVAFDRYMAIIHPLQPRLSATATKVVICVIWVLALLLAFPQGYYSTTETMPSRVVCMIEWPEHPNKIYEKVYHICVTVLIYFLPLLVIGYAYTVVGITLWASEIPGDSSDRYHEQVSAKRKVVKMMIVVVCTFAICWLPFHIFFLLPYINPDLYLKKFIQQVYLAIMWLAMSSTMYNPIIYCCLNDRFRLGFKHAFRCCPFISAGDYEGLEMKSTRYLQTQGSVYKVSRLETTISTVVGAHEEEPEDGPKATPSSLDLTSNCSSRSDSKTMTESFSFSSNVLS

- Ki [1]: 108 nM
- EC50 [2]: 66 nM
- Papp A→B [3]: 12.7 ×10⁻⁶ cm/s
- Cp(f) (Plasma [4]): 1500 nM
- efflux ratio [6]: 1.1
- Cp(f) (Plasma [7]): 860 nM
- Ki [8]: 22 nM
- Ratio [11]: 1.9
- clearance [13]: 3.6 mL/min/kg
- inhibition [14]: > 50%
- fraction unbound [15]: 0.034
- Ki [17]: 24 nM
- Ki [18]: 0.7 nM
- clearance [21]: 5.1 mL/min/kg
- Ratio [22]: 0.61
- Cp(f) (Plasma [23]): 2600 nM
- fraction unbound [24]: 0.028
- inhibition [26]: 67%
- fraction unbound [27]: 0.039
- inhibition [29]: > 50%
- Ratio Ki (Homo sapiens [31]): 31
Structure (SMILES): Cc1cc(Nc2nccc3nc(-c4c(Cl)cc(C#N)cc4Cl)[nH]c23)ncn1
- Activity (Mus musculus [5]): 99%
- inhibition in vivo at 70 mg/kg (Mus musculus [9]): 72%
- Activity (Mus musculus [10]): 55%
- inhibition in vivo at 100 mg/kg (Mus musculus [12]): 87%
- Ratio EC50 (Homo sapiens [16]): 21
- Activity (Mus musculus [19]): 82%
- Ratio [20]: 39
- Activity (Mus musculus [25]): 21%
- Ratio [28]: 13
- Activity (Mus musculus [30]): 20%
